Tests used:
H. pylori [1] = assay: Effects of NiCl2 on H. pylori on culture medium (50 mL Colombian culture medium with 80 mg urea and 0.4 mg phenol red); format: cell-based, Helicobacter pylori; set-up: key to bacteria growth and discoloration: +: refers to a good bacteria growth after 36 hours of culture, with a discoloration; ++: refers to a good bacteria growth after 36 hours of culture, with an obvious discoloration; conditions: for bacteria growth and discoloration: 36 hours of culture
H. pylori [2] = assay: Effects of urea and phenol red on H. pylori on Columbia culture medium; format: cell-based, Helicobacter pylori; conditions: for bacterial growth: 1 × 10^6 CFU/mL; for effect on the growth of H. pylori: strains G27 and 287, 72 hours

SMILES: [Cl][Ni][Cl] [NiCl2, nickel chloride]
- recognition of the discoloration reaction (H. pylori [1]; NiCl2 100 μmol/L): has reached its maximum
- sensitivity and identification of the discoloration reaction (H. pylori [1]; NiCl2 1 μMol/L to 200 μMol/L, 80 mg urea, 0.4 mg phenol red, pH 7.15 to 7.35): the sensitivity and identification of the discoloration reaction are further improved
- bacteria growth and discoloration (H. pylori [1]; strain 159, NiCl2 1 μmol/L): +
- bacteria growth and discoloration (H. pylori [1]; strain 159, NiCl2 10 μmol/L): +
- bacteria growth and discoloration (H. pylori [1]; strain 159, NiCl2 100 μmol/L): ++
- bacteria growth and discoloration (H. pylori [1]; strain 161, NiCl2 1 μmol/L): +
- bacteria growth and discoloration (H. pylori [1]; strain 161, NiCl2 10 μmol/L): +
- bacteria growth and discoloration (H. pylori [1]; strain 161, NiCl2 100 μmol/L): ++
- bacteria growth and discoloration (H. pylori [1]; strain 162, NiCl2 1 μmol/L): +
- bacteria growth and discoloration (H. pylori [1]; strain 162, NiCl2 10 μmol/L): +
- bacteria growth and discoloration (H. pylori [1]; strain 162, NiCl2 100 μmol/L): ++
- bacteria growth and discoloration (H. pylori [1]; strain 163, NiCl2 1 μmol/L): +
- bacteria growth and discoloration (H. pylori [1]; strain 163, NiCl2 10 μmol/L): +
- bacteria growth and discoloration (H. pylori [1]; strain 163, NiCl2 100 μmol/L): ++
- bacteria growth and discoloration (H. pylori [1]; strain 286, NiCl2 1 μmol/L): +
- bacteria growth and discoloration (H. pylori [1]; strain 286, NiCl2 10 μmol/L): +
- bacteria growth and discoloration (H. pylori [1]; strain 286, NiCl2 100 μmol/L): ++
- bacteria growth and discoloration (H. pylori [1]; strain 287, NiCl2 1 μmol/L): +
- bacteria growth and discoloration (H. pylori [1]; strain 287, NiCl2 10 μmol/L): +
- bacteria growth and discoloration (H. pylori [1]; strain 287, NiCl2 100 μmol/L): ++
- bacteria growth and discoloration (H. pylori [1]; strain 289, NiCl2 1 μmol/L): +
- bacteria growth and discoloration (H. pylori [1]; strain 289, NiCl2 10 μmol/L): +
- bacteria growth and discoloration (H. pylori [1]; strain 289, NiCl2 100 μmol/L): ++
- bacteria growth and discoloration (H. pylori [1]; strain 290, NiCl2 1 μmol/L): +
- bacteria growth and discoloration (H. pylori [1]; strain 290, NiCl2 10 μmol/L): +
- bacteria growth and discoloration (H. pylori [1]; strain 290, NiCl2 100 μmol/L): ++
- bacteria growth and discoloration (H. pylori [1]; strain 26695, NiCl2 1 μmol/L): +
- bacteria growth and discoloration (H. pylori [1]; strain 26695, NiCl2 10 μmol/L): +
- bacteria growth and discoloration (H. pylori [1]; strain 26695, NiCl2 100 μmol/L): ++
- bacteria growth and discoloration (H. pylori [1]; strain G27, NiCl2 1 μmol/L): +
- bacteria growth and discoloration (H. pylori [1]; strain G27, NiCl2 10 μmol/L): +
- bacteria growth and discoloration (H. pylori [1]; strain G27, NiCl2 100 μmol/L): ++

SMILES: NC(N)=O [Urea, urea]
- maximum value of added urea without affecting the growth of H. pylori (H. pylori [2]; in 50 mL Colombian culture medium): 80 mg
- bacterial growth (H. pylori [2]; strain 159, urea 60 mg): ++
- bacterial growth (H. pylori [2]; strain 159, urea 80 mg): ++
- bacterial growth (H. pylori [2]; strain 159, urea 100 mg): +
- bacterial growth (H. pylori [2]; strain 159, urea 120 mg): +
- bacterial growth (H. pylori [2]; strain 159, urea 240 mg): −
- bacterial growth (H. pylori [2]; strain 161, urea 60 mg): ++
- bacterial growth (H. pylori [2]; strain 161, urea 80 mg): ++
- bacterial growth (H. pylori [2]; strain 161, urea 100 mg): +
- bacterial growth (H. pylori [2]; strain 161, urea 120 mg): +
- bacterial growth (H. pylori [2]; strain 161, urea 240 mg): −
- bacterial growth (H. pylori [2]; strain 162, urea 60 mg): ++
- bacterial growth (H. pylori [2]; strain 162, urea 80 mg): ++
- bacterial growth (H. pylori [2]; strain 162, urea 100 mg): +
- bacterial growth (H. pylori [2]; strain 162, urea 120 mg): +
- bacterial growth (H. pylori [2]; strain 162, urea 240 mg): −
- bacterial growth (H. pylori [2]; strain 163, urea 60 mg): ++
- bacterial growth (H. pylori [2]; strain 163, urea 80 mg): ++
- bacterial growth (H. pylori [2]; strain 163, urea 100 mg): +
- bacterial growth (H. pylori [2]; strain 163, urea 120 mg): +
- bacterial growth (H. pylori [2]; strain 163, urea 240 mg): −
- bacterial growth (H. pylori [2]; strain 286, urea 60 mg): ++
- bacterial growth (H. pylori [2]; strain 286, urea 80 mg): ++
- bacterial growth (H. pylori [2]; strain 286, urea 100 mg): +
- bacterial growth (H. pylori [2]; strain 286, urea 120 mg): +
- bacterial growth (H. pylori [2]; strain 286, urea 240 mg): −
- bacterial growth (H. pylori [2]; strain 287, urea 60 mg): ++
- bacterial growth (H. pylori [2]; strain 287, urea 80 mg): ++
- bacterial growth (H. pylori [2]; strain 287, urea 100 mg): +
- bacterial growth (H. pylori [2]; strain 287, urea 120 mg): +
- bacterial growth (H. pylori [2]; strain 287, urea 240 mg): −
- bacterial growth (H. pylori [2]; strain 289, urea 60 mg): ++
- bacterial growth (H. pylori [2]; strain 289, urea 80 mg): ++
- bacterial growth (H. pylori [2]; strain 289, urea 100 mg): +
- bacterial growth (H. pylori [2]; strain 289, urea 120 mg): +
- bacterial growth (H. pylori [2]; strain 289, urea 240 mg): −
- bacterial growth (H. pylori [2]; strain 290, urea 60 mg): ++
- bacterial growth (H. pylori [2]; strain 290, urea 80 mg): ++
- bacterial growth (H. pylori [2]; strain 290, urea 100 mg): +
- bacterial growth (H. pylori [2]; strain 290, urea 120 mg): +
- bacterial growth (H. pylori [2]; strain 290, urea 240 mg): −
- bacterial growth (H. pylori [2]; strain 26695, urea 60 mg): ++
- bacterial growth (H. pylori [2]; strain 26695, urea 80 mg): ++
- bacterial growth (H. pylori [2]; strain 26695, urea 100 mg): +
- bacterial growth (H. pylori [2]; strain 26695, urea 120 mg): +
- bacterial growth (H. pylori [2]; strain 26695, urea 240 mg): −
- bacterial growth (H. pylori [2]; strain G27, urea 60 mg): ++
- bacterial growth (H. pylori [2]; strain G27, urea 80 mg): ++
- bacterial growth (H. pylori [2]; strain G27, urea 100 mg): +
- bacterial growth (H. pylori [2]; strain G27, urea 120 mg): +
- bacterial growth (H. pylori [2]; strain G27, urea 240 mg): −
- effect on the growth of H. pylori (H. pylori [2]; urea 60 mg in 50 mL Colombian culture medium): no effect on the growth of H. pylori
- effect on the growth of H. pylori (H. pylori [2]; urea 120 mg to 240 mg in 50 mL Colombian culture medium): the growth is not good

Source: patent US12486489B2, “Culture medium for testing drug resistance of H.pylori as well as preparation method and use thereof” (priority 2022, dated 2025)
